Molecular target: T1, GLUT1 (Homo sapiens, UniProt P11166)
T1 sequence (P11166 1-492): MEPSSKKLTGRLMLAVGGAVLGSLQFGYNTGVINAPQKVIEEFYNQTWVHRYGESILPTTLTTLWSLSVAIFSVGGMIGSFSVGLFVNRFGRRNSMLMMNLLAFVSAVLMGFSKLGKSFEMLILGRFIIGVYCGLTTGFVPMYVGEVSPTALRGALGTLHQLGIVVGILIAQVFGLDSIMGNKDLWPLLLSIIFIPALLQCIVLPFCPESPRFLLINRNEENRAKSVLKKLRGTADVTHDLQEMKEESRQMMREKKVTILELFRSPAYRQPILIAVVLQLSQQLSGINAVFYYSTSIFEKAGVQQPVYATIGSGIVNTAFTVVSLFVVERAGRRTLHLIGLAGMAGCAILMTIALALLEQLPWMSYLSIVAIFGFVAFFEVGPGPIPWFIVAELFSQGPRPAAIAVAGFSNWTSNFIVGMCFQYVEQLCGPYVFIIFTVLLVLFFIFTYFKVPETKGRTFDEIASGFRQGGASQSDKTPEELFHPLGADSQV
Assay: not given
Settings: substrates and inhibitors of GLUT1; cited from earlier work

| Compound | Reported Affinity for GLUT1 [mM] |
| --- | --- |
| O=C(CCc1ccc(O)cc1)c1c(O)cc(O)cc1O [Phloretin] | 0.05 |
| O=C1O[C@H]([C@@H](O)CO)C(=O)C1=O [Dehydroascorbic Acid] | 0.8 |
| N[C@H]1C(O)O[C@H](CO)[C@@H](O)[C@@H]1O (stereo partly shown) [Glucosamine] | 9 |
| O=C[C@H](O)[C@@H](O)[C@@H](O)[C@H](O)CO [Galactose] | 4 |
| Fluorodeoxyglucose | 4 |
| (S)-methoxy-a-methyl-2-napthalene acetic acid amido galacto pyranose | 1 |

Molecular target: T1, GLUT1
Assay: Uptake of 3H-glucose by GLUT1 expressed in Xenopus oocytes
Assay type: cell-based
Design: expressed in transfected cells; host or cells: Xenopus oocytes (defolliculated), injected with in vitro transcribed GLUT1 cRNA
Settings: Xenopus oocytes injected with GLUT1 cRNA
Method: To assess transport function of a specific transporter protein, it can be desirable to clone the cDNA and express the protein in cells that have low endogenous transport activity. Human GLUT1 was cloned by PCR, fully sequenced, and subcloned into plasmids that can be used for expression in mammalian cells or Xenopus oocytes. […] For expression in Xenopus oocytes, in vitro GLUT1 cRNA was prepared and injected into defoliculated oocytes. […]

| 3H-glucose uptake versus noninjected controls | Compound |
| --- | --- |
| higher levels | O=C[C@H](O)[C@@H](O)[C@H](O)[C@H](O)CO [^3H-glucose] |
